molecular target: T1, N-terminally GST-tagged human full length recombinant Mps-1 kinase (Homo sapiens, UniProt P33981); test: Mps-1 kinase assay (TR-FRET); assay type: biochemical; conditions: Mps1 IC50 [nM], 10 μM ATP, 1 μM peptide substrate, 60 min at 22° C.
T1 construct: N-terminally GST-tagged human full length recombinant Mps-1 kinase; purchased Invitrogen, Karslruhe, Germany PV4071
T1 sequence (P33981 1-857): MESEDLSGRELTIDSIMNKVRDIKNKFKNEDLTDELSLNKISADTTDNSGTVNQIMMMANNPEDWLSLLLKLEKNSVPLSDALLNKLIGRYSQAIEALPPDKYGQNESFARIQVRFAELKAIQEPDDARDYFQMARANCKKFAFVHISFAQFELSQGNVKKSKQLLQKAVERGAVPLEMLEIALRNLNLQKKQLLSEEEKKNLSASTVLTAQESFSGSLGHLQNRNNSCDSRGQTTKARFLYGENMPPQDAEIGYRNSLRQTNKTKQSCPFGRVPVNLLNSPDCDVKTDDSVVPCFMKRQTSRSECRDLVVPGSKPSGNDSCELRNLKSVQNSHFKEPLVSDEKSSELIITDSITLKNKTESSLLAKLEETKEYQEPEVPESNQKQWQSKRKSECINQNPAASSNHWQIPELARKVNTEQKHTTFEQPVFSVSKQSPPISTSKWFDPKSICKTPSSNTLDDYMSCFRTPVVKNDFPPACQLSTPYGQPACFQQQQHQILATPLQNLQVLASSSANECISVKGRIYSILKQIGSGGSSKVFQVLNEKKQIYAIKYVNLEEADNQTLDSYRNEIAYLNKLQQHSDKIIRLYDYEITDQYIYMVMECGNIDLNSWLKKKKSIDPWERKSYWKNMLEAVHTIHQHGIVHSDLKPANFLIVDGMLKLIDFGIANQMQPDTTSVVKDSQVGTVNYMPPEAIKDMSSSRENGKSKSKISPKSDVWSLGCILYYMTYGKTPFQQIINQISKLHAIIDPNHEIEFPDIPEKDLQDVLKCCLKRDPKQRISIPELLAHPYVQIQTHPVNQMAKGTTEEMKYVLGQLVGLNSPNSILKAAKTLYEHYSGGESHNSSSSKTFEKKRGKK
Procedure, shortened: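 Read-out: TR-FRET from Europium-labelled anti-phospho(Ser/Thr) antibody to SA-XLent after 1 h detection incubation at 22° C. Inhibition of kinase activity measured.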

Row | SMILES | IC50 [nM]
1 | Cc1cc(-c2cnc3c(NCC(C)(C)O)cc(-c4cn[nH]c4)nn23)ccc1C(=O)NC1CC1 [Example 162, N-cyclopropyl-4-{8-[(2-hydroxy-2-methylpropyl)amino]-6-(1H-pyrazol-4-yl)imidazo[1,2-b]pyridazin-3-yl}-2-methylbenzamide] | 64.9
2 | Cc1cc(-c2cnc3c(NCC(C)(C)O)cc(-c4cncnc4)nn23)ccc1C(=O)NC1CC1 [Example 163, N-cyclopropyl-4-{8-[(2-hydroxy-2-methylpropyl)amino]-6-(pyrimidin-5-yl)imidazo[1,2-b]pyridazin-3-yl}-2-methylbenzamide] | 30.5
3 | CC(C)CNc1cc(Cl)nn2c(-c3ccc(C(N)=O)cc3)cnc12 [Example 176, 4-{6-Chloro-8-[(2-methylpropyl)amino]imidazo[1,2-b]pyridazin-3-yl}benzamide] | 465
4 | CNC(=O)c1ccc(-c2cnc3c(NCC(C)C)cc(Cl)nn23)cc1 [Example 178, 4-{6-Chloro-8-[(2-methylpropyl)amino]imidazo[1,2-b]pyridazin-3-yl}-N-methylbenzamide] | 172
5 | CC(C)CNc1cc(Cl)nn2c(-c3ccc(C(=O)NC(C)C)cc3)cnc12 [Example 179, 4-{6-Chloro-8-[(2-methylpropyl)amino]imidazo[1,2-b]pyridazin-3-yl}-N-(propan-2-yl)benzamide] | 601
6 | CNC(=O)c1ccc(-c2cnc3c(NCC(C)C)cc(Cl)nn23)cc1Cl [Example 180, 2-Chloro-4-{6-chloro-8-[(2-methylpropyl)amino]imidazo[1,2-b]pyridazin-3-yl}-N-methylbenzamide] | 327
7 | CC(C)CNc1cc(Cl)nn2c(-c3ccc(C(=O)NC4CC4)c(Cl)c3)cnc12 [Example 181, 2-Chloro-4-{6-chloro-8-[(2-methylpropyl)amino]imidazo[1,2-b]pyridazin-3-yl}-N-cyclopropyl-benzamide] | 39.9
8 | CC(C)CNc1cc(Cl)nn2c(-c3ccc4c(NC5CC5)noc4c3)cnc12 [Example 183, 6-Chloro-3-[3-(cyclopropylamino)-1,2-benzoxazol-6-yl]-N-(2-methylpropyl)imidazo[1,2-b] pyridazin-8-amine] | 290
9 | CC(C)CNc1cc(Cl)nn2c(-c3ccc(-c4cnc(C5CC5)[nH]4)cc3)cnc12 [Example 184, 6-Chloro-3-[4-(2-cyclopropyl-1H-imidazol-5-yl)phenyl]-N-(2-methylpropyl)imidazo[1,2-b]pyridazin-8-amine] | 101
10 | CNC(=O)c1ccc(-c2cnc3c(NCc4cccs4)cc(Cl)nn23)cc1Cl [Example 186, 2-Chloro-4-{6-chloro-8-[(thiophen-2-ylmethyl)amino]imidazo[1,2-b]pyridazin-3-yl}-N-methylbenzamide] | 338
11 | O=C(NC1CC1)c1ccc(-c2cnc3c(NCc4cccs4)cc(Cl)nn23)cc1Cl [Example 187, 2-Chloro-4-{6-chloro-8-[(thiophen-2-ylmethyl)amino]imidazo[1,2-b]pyridazin-3-yl}-N-cyclopropyl-benzamide] | 49.8
12 | CNC(=O)c1ccc(-c2cnc3c(NCc4cccs4)cc(Cl)nn23)cc1 [Example 190, 4-{6-Chloro-8-[(thiophen-2-yl-methyl)amino]imidazo[1,2-b]pyridazin-3-yl}-N-methylbenzamide] | 660
13 | NC(=O)c1ccc(-c2cnc3c(NCc4cccs4)cc(Cl)nn23)cc1 [Example 191, 4-{6-Chloro-8-[(thiophen-2-yl-methyl)amino]imidazol[1,2-b]pyridazin-3-yl}benzamide] | ≥ 20000

The next compounds have a lower IC50 than those just listed; values first:

Row | IC50 [nM] | SMILES
14 | 1.8 | Cc1cc(-c2cnc3c(NCC(C)(C)O)cc(-c4ccc(F)c(CO)c4)nn23)ccc1C(=O)NC1CC1 [Example 165, N-cyclopropyl-4-{6-[4-fluoro-3-(hydroxymethyl)phenyl]-8-[(2-hydroxy-2-methylpropyl)amino]imidazo[1,2-b]pyridazin-3-yl}-2-methylbenzamide]
15 | 5.3 | Cc1cc(-c2cnc3c(NCC(C)(C)O)cc(C4=CCOCC4)nn23)ccc1C(=O)NC1CC1 [Example 166, N-cyclopropyl-4-{6-(3,6-dihydro-2H-pyran-4-yl)-8-[(2-hydroxy-2-methylpropyl)amino]imidazo[1,2-b]pyridazin-3-yl}-2-methylbenzamide]
16 | 2.3 | Cc1cc(-c2cnc3c(NCC(C)(C)O)cc(Oc4cccc5ncccc45)nn23)ccc1C(=O)NC1CC1 [Example 167, N-cyclopropyl-4-{8-[(2-hydroxy-2-methylpropyl)amino]-6-(quinolin-5-yloxy)imidazo[1,2-b]pyridazin-3-yl}-2-methylbenzamide]
17 | 0.3 | Cc1cc(-c2cnc3c(NCC(C)(C)O)cc(Oc4ccc5ncccc5c4)nn23)ccc1C(=O)NC1CC1 [Example 168, N-cyclopropyl-4-{8-[(2-hydroxy-2-methylpropyl)amino]-6-(quinolin-6-yloxy)imidazo[1,2-b]pyridazin-3-yl}-2-methylbenzamide]
18 | 0.1 | Cc1cc(-c2cnc3c(NCCC(F)(F)F)cc(Oc4ccc5ncccc5c4)nn23)ccc1C(=O)NC1CC1 [Example 169, N-cyclopropyl-2-methyl-4-{6-(quinolin-6-yloxy)-8-[(3,3,3-trifluoro-propyl)amino]imidazo[1,2-b]pyridazin-3-yl}benzamide]
19 | 0.7 | Cc1cc(-c2cnc3c(NCCC(F)(F)F)cc(Oc4cccc5ncccc45)nn23)ccc1C(=O)NC1CC1 [Example 170, N-cyclopropyl-2-methyl-4-{6-(quinolin-5-yloxy)-8-[(3,3,3-trifluoro-propyl)amino]imidazo[1,2-b]pyridazin-3-yl}benzamide]
20 | 0.8 | Cc1cc(-c2cnc3c(NCCC(F)(F)F)cc(SC4CCCCC4)nn23)ccc1C(=O)NC1CC1 [Example 171, 4-{6-(cyclohexylsulfanyl)-8-[(3,3,3-trifluoropropyl)amino]imidazo [1,2-b]pyridazin-3-yl}-N-cyclopropyl-2-methylbenzamide]
21 | 0.8 | Cc1cc(-c2cnc3c(NCC(C)(C)O)cc(SC4CCCCC4)nn23)ccc1C(=O)NC1CC1 [Example 172, 4-{6-(cyclohexylsulfanyl)-8-[(2-hydroxy-2-methylpropyl)amino]imidazo[1,2-b]pyridazin-3-yl}-N-cyclopropyl-2-methylbenzamide]
22 | 0.4 | Cc1cc(-c2cnc3c(NCC(C)(C)O)cc(Oc4cccnc4)nn23)ccc1C(=O)NC1CC1 [Example 173, N-cyclopropyl-4-{8-[(2-hydroxy-2-methylpropyl)amino]-6-(pyridin-3-yloxy)imidazo[1,2-b]pyridazin-3-yl}-2-methylbenzamide]
23 | < 0.1 | Cc1cc(-c2cnc3c(NCCC(F)(F)F)cc(Oc4cccnc4)nn23)ccc1C(=O)NC1CC1 [Example 174, N-cyclopropyl-2-methyl-4-{6-(pyridin-3-yloxy)-8-[(3,3,3-trifluoro-propyl)amino]imidazo[1,2-b]pyridazin-3-yl}benzamide]
24 | 21.5 | Cn1nccc1-c1cc(NC[C@H](O)[C@H]2COC(C)(C)O2)c2ncc(-c3ccc(C(=O)NC4CC4)cc3)n2n1 [Example 192, N-cyclopropyl-4-[8-({(2S)-2-[(4R)-2,2-dimethyl-1,3-dioxolan-4-yl]-2-hydroxyethyl}amino)-6-(1-methyl-1H-pyrazol-5-yl)imidazo[1,2-b]pyridazin-3-yl]benzamide]
25 | 3.2 | Cc1cc(-c2cnc3c(NCC(C)C)cc(-c4ccn[nH]4)nn23)ccc1C(=O)NC1CC1 [Example 195, N-cyclopropyl-2-methyl-4-{8-[(2-methylpropyl)amino]-6-(1H-pyrazol-5-yl)imidazo[1,2-b]pyridazin-3-yl}benzamide]
26 | 2.7 | CSc1cc(NCC(C)C)c2ncc(-c3ccc(C(=O)NC4CC4)c(C)c3)n2n1 [Example 196, N-cyclopropyl-2-methyl-4-{8-[(2-methylpropyl)amino]-6-(methylsulfanyl)imidazo[1,2-b]pyridazin-3-yl}benzamide]
27 | < 1 | Cc1cc(-c2cnc3c(NCC(C)C)cc(Sc4ccccc4)nn23)ccc1C(=O)NC1CC1 [Example 197, N-cyclopropyl-2-methyl-4-{8-[(2-methylpropyl)amino]-6-(phenylsulfanyl)imidazo[1,2-b]pyridazin-3-yl}benzamide]
28 | 2.6 | Cc1cc(-c2cnc3c(NCC(C)C)cc(S(=O)(=O)c4ccccc4)nn23)ccc1C(=O)NC1CC1 [Example 198, N-cyclopropyl-2-methyl-4-{8-[(2-methylpropyl)amino]-6-(phenylsulfonyl)imidazo[1,2-b]pyridazin-3-yl}benzamide]
29 | 6.9 | Cc1cc(-c2cnc3c(NCC(C)C)cc(C(=O)NCCO)nn23)ccc1C(=O)NC1CC1 [Example 199, 3-[4-(Cyclopropylcarbamoyl)-3-methylphenyl]-N-(2-hydroxyethyl)-8-[(2-methylpropyl)amino]imidazo[1,2-b]pyridazine-6-carboxamide]

Source: patent US9255100B2 (BAYER INTELLECTUAL PROPERTY GMBH, priority 2010, dated 2016)
